Laboratory results reported in the NIST ThermoML archive (doi:10.1021/je500275j).

Assay: xn = mol fraction of the nth substance listed
Conditions: 100 kPa, Liquid; for viscosity: Falling or rolling sphere viscometry; for mass density: Vibrating tube method

CCC1CCCCC1 [ethylcyclohexane] + C1CCC(C2CCCCC2)CC1
Conditions	mass density [kg/m3]	viscosity [mPa·s]
293.15 K, x2 = 0	788.23	0.851
293.15 K, x2 = 0.1001	801.13	0.996
293.15 K, x2 = 0.2003	813.19	1.164
293.15 K, x2 = 0.3001	824.41	1.369
293.15 K, x2 = 0.4002	835.03	1.621
293.15 K, x2 = 0.498	844.69	1.848
293.15 K, x2 = 0.5996	854.14	2.139
293.15 K, x2 = 0.6996	862.93	2.451
293.15 K, x2 = 0.7983	871.02	2.874
293.15 K, x2 = 0.901	879.05	3.379
298.15 K, x2 = 0	784.2	0.796
298.15 K, x2 = 0.1001	797.17	0.934
298.15 K, x2 = 0.2003	809.29	1.079
298.15 K, x2 = 0.3001	820.56	1.264
298.15 K, x2 = 0.4002	831.23	1.488
298.15 K, x2 = 0.498	840.93	1.685
298.15 K, x2 = 0.5996	850.42	1.94
298.15 K, x2 = 0.6996	859.24	2.21
298.15 K, x2 = 0.7983	867.36	2.574
298.15 K, x2 = 0.901	875.42	3.003
303.15 K, x2 = 0	780.16	0.748
303.15 K, x2 = 0.1001	793.2	0.874
303.15 K, x2 = 0.2003	805.38	1.004
303.15 K, x2 = 0.3001	816.7	1.173
303.15 K, x2 = 0.4002	827.42	1.372
303.15 K, x2 = 0.498	837.16	1.547
303.15 K, x2 = 0.5996	846.72	1.77
303.15 K, x2 = 0.6996	855.55	2.005
303.15 K, x2 = 0.7983	863.7	2.322
303.15 K, x2 = 0.901	871.8	2.689
308.15 K, x2 = 0	776.11	0.704
308.15 K, x2 = 0.1001	789.22	0.82
308.15 K, x2 = 0.2003	801.46	0.938
308.15 K, x2 = 0.3001	812.84	1.091
308.15 K, x2 = 0.4002	823.6	1.258
308.15 K, x2 = 0.498	833.39	1.428
308.15 K, x2 = 0.5996	842.97	1.626
308.15 K, x2 = 0.6996	851.86	1.828
308.15 K, x2 = 0.7983	860.05	2.106
308.15 K, x2 = 0.901	868.18	2.425
313.15 K, x2 = 0	772.04	0.665
313.15 K, x2 = 0.1001	785.22	0.77
313.15 K, x2 = 0.2003	797.53	0.879
313.15 K, x2 = 0.3001	808.96	1.018
313.15 K, x2 = 0.4002	819.79	1.175
313.15 K, x2 = 0.498	829.62	1.32
313.15 K, x2 = 0.5996	839.25	1.492
313.15 K, x2 = 0.6996	848.18	1.675
313.15 K, x2 = 0.7983	856.4	1.92
313.15 K, x2 = 0.901	864.56	2.197
318.15 K, x2 = 0	767.96	0.629
318.15 K, x2 = 0.1001	781.22	0.727
318.15 K, x2 = 0.2003	793.59	0.825
318.15 K, x2 = 0.3001	805.08	0.951
318.15 K, x2 = 0.4002	815.96	1.094
318.15 K, x2 = 0.498	825.85	1.225
318.15 K, x2 = 0.5996	835.52	1.381
318.15 K, x2 = 0.6996	844.5	1.542
318.15 K, x2 = 0.7983	852.76	1.759
318.15 K, x2 = 0.901	860.95	2.002
